According to patent US5470852A, “Tetrahydroprotoberberine quaternary ammonium compounds useful in for treating arrhythmia” (priority 1991, dated 1995):
Read-outs that look alike come from different tables or passages of the source.

Tested on: anaesthetized rats
Conditions: for Arrhythmic scores / Lethal risk / Antiarrhythmic effect: X ± SD; for Incidence of VF: n=10; for Death / animals with VF / animals without VF: of n=10

`COc1ccc2c(c1OC)C[N+]1(Cc3ccc(Cl)cc3)CCc3cc4c(cc3C1C2)OCO4` (stereo not shown) [Compound I13, 7-(4-chlorobenzyl)-5,8,13,13a-tetrahydroberberine chloride] was tested, and the “anti-arrhythmic activity relative to lidocaine” value (i.v.) was 10 times, the “inhibition of arrhythmias and VF induced by left coronary artery ligation” value (i.v. or p.o.) was “significantly inhibited” and the Arrhythmic scores (iv 0.1 mg/kg) was 2.4 ± 2.2. For the same molecule, the “Lethal risk” value (iv 0.1 mg/kg) was 75 ± 30, the Antiarrhythmic effect (iv 0.1 mg/kg, coronary occlusion 5 min) was 0.25 ± 0.26 and the Antiarrhythmic effect (iv 0.1 mg/kg, coronary occlusion 10 min) was 1.7 ± 2.1. The “Incidence of VF” value (iv 0.1 mg/kg) was 30%, the Death (iv 0.1 mg/kg) was 3 and the “animals with VF” value (iv 0.1 mg/kg) was 3. For the same molecule, the “animals without VF” value (iv 0.1 mg/kg) was 4, the Antiarrhythmic effect (iv 0.1 mg/kg, reperfusion 0.17 min) was 2.2 ± 2.5 and the Antiarrhythmic effect (iv 0.1 mg/kg, reperfusion 0.33 min) was 2.1 ± 2.1. The Antiarrhythmic effect (iv 0.1 mg/kg, reperfusion 0.5 min) was 2.4 ± 2.2, the Antiarrhythmic effect (iv 0.1 mg/kg, reperfusion 1 min) was 2.3 ± 2.6 and the Antiarrhythmic effect (iv 0.1 mg/kg, reperfusion 2 min) was 1.6 ± 2.1. For the same molecule, the Antiarrhythmic effect (iv 0.1 mg/kg, reperfusion 3 min) was 1.6 ± 2.1, the Antiarrhythmic effect (iv 0.1 mg/kg, reperfusion 5 min) was 1.6 ± 2.1 and the Antiarrhythmic effect (iv 0.1 mg/kg, reperfusion 6 min) was 2.4 ± 3.4. For the same molecule, the Antiarrhythmic effect (iv 0.1 mg/kg, reperfusion 7 min) was 0.20 ± 0.26, the Antiarrhythmic effect (iv 0.1 mg/kg, reperfusion 10 min) was 0.42 ± 0.19 and the Antiarrhythmic effect (iv 0.1 mg/kg, reperfusion 15 min) was 0.42 ± 0.19. For the same molecule, the Antiarrhythmic effect (iv 0.1 mg/kg, reperfusion 25 min) was 0.43 ± 0.19, the Arrhythmic scores (iv 0.3 mg/kg) was 1.2 ± 1.7 and the “Lethal risk” value (iv 0.3 mg/kg) was 57 ± 26. For the same molecule, the Antiarrhythmic effect (iv 0.3 mg/kg, coronary occlusion 5 min) was 0.6 ± 1.3, the Antiarrhythmic effect (iv 0.3 mg/kg, coronary occlusion 10 min) was 0.9 ± 1.9 and the “Incidence of VF” value (iv 0.3 mg/kg) was 20%. For the same molecule, the Death (iv 0.3 mg/kg) was 1, the “animals with VF” value (iv 0.3 mg/kg) was 2 and the “animals without VF” value (iv 0.3 mg/kg) was 7. The Antiarrhythmic effect (iv 0.3 mg/kg, reperfusion 0.17 min) was 0.9 ± 1.3, the Antiarrhythmic effect (iv 0.3 mg/kg, reperfusion 0.33 min) was 1.3 ± 2.0 and the Antiarrhythmic effect (iv 0.3 mg/kg, reperfusion 0.5 min) was 1.2 ± 1.7. It also gave an Antiarrhythmic effect (iv 0.3 mg/kg, reperfusion 1 min) of 0.8 ± 1.8, an Antiarrhythmic effect (iv 0.3 mg/kg, reperfusion 2 min) of 0.8 ± 1.8 and an Antiarrhythmic effect (iv 0.3 mg/kg, reperfusion 3 min) of 0.22 ± 0.26. It also gave an Antiarrhythmic effect (iv 0.3 mg/kg, reperfusion 5 min) of 0.6 ± 1.2, an Antiarrhythmic effect (iv 0.3 mg/kg, reperfusion 6 min) of 0.8 ± 1.8 and an Antiarrhythmic effect (iv 0.3 mg/kg, reperfusion 7 min) of 0.8 ± 1.8. For the same molecule, the Antiarrhythmic effect (iv 0.3 mg/kg, reperfusion 10 min) was 0.8 ± 1.8, the Antiarrhythmic effect (iv 0.3 mg/kg, reperfusion 15 min) was 1.0 ± 2.2 and the Antiarrhythmic effect (iv 0.3 mg/kg, reperfusion 25 min) was 0.2 ± 0.4. The Arrhythmic scores (iv 1.0 mg/kg) was 1.3 ± 1.7, the “Lethal risk” value (iv 1.0 mg/kg) was 41 ± 0 and the Antiarrhythmic effect (iv 1.0 mg/kg, coronary occlusion 5 min) was 0.4 ± 0.2. For the same molecule, the Antiarrhythmic effect (iv 1.0 mg/kg, coronary occlusion 10 min) was 0.4 ± 0.2, the “Incidence of VF” value (iv 1.0 mg/kg) was 0% and the Death (iv 1.0 mg/kg) was 0. The “animals with VF” value (iv 1.0 mg/kg) was 0, the “animals without VF” value (iv 1.0 mg/kg) was 10 and the Antiarrhythmic effect (iv 1.0 mg/kg, reperfusion 0.17 min) was 1.4 ± 1.4. For the same molecule, the Antiarrhythmic effect (iv 1.0 mg/kg, reperfusion 0.33 min) was 3.2 ± 2.0, the Antiarrhythmic effect (iv 1.0 mg/kg, reperfusion 0.5 min) was 1.6 ± 1.6 and the Antiarrhythmic effect (iv 1.0 mg/kg, reperfusion 2 min) was 0.20 ± 0.26. The Antiarrhythmic effect (iv 1.0 mg/kg, reperfusion 3 min) was 0.20 ± 0.26, the Antiarrhythmic effect (iv 1.0 mg/kg, reperfusion 5 min) was 0.20 ± 0.26 and the Antiarrhythmic effect (iv 1.0 mg/kg, reperfusion 6 min) was 0.20 ± 0.26. The Antiarrhythmic effect (iv 1.0 mg/kg, reperfusion 7 min) was 0.20 ± 0.26, the Antiarrhythmic effect (iv 1.0 mg/kg, reperfusion 10 min) was 0.20 ± 0.26 and the Antiarrhythmic effect (iv 1.0 mg/kg, reperfusion 15 min) was 0.10 ± 0.21. The Antiarrhythmic effect (iv 1.0 mg/kg, reperfusion 25 min) was 0.10 ± 0.21, the “potency relative to propafenon” value (p.o.) was “considerably more potent” and the Arrhythmic scores (po 10 mg/kg) was 2.7 ± 1.9. For the same molecule, the Antiarrhythmic effect (po 10 mg/kg, coronary occlusion 5 min) was 0.4 ± 0.8, the Antiarrhythmic effect (po 10 mg/kg, coronary occlusion 10 min) was 0.50 ± 0.16 and the “Incidence of VF” value (po 10 mg/kg) was 20%. For the same molecule, the “animals with VF” value (po 10 mg/kg) was 2, the “animals without VF” value (po 10 mg/kg) was 8 and the Antiarrhythmic effect (po 10 mg/kg, reperfusion 0.17 min) was 2.6 ± 1.8. For the same molecule, the Antiarrhythmic effect (po 10 mg/kg, reperfusion 0.33 min) was 2.7 ± 1.9, the Antiarrhythmic effect (po 10 mg/kg, reperfusion 0.5 min) was 1.9 ± 1.7 and the Antiarrhythmic effect (po 10 mg/kg, reperfusion 1 min) was 1.9 ± 1.6. It also gave an Antiarrhythmic effect (po 10 mg/kg, reperfusion 1.5 min) of 1.4 ± 1.3, an Antiarrhythmic effect (po 10 mg/kg, reperfusion 3 min) of 1.1 ± 1.5 and an Antiarrhythmic effect (po 10 mg/kg, reperfusion 4 min) of 1.2 ± 1.4. For the same molecule, the Antiarrhythmic effect (po 10 mg/kg, reperfusion 5 min) was 1.0 ± 1.2, the Antiarrhythmic effect (po 10 mg/kg, reperfusion 6 min) was 0.8 ± 1.1 and the Antiarrhythmic effect (po 10 mg/kg, reperfusion 7 min) was 0.8 ± 1.1. It also gave an Antiarrhythmic effect (po 10 mg/kg, reperfusion 15 min) of 0.8 ± 1.1, an Antiarrhythmic effect (po 10 mg/kg, reperfusion 25 min) of 0.8 ± 1.1 and an Arrhythmic scores (po 30 mg/kg) of 3.2 ± 2.2. For the same molecule, the “Lethal risk” value (po 30 mg/kg) was 57 ± 26, the Antiarrhythmic effect (po 30 mg/kg, coronary occlusion 5 min) was 0 ± 0 and the Antiarrhythmic effect (po 30 mg/kg, coronary occlusion 10 min) was 1.6 ± 1.6. The “Incidence of VF” value (po 30 mg/kg) was 20%.
